Our source for the IC50 and EC50 values is US9221795B2, “Phosphatidylinositol 3-kinase inhibitors” (Gilead Sciences, Inc., priority 2013, dated 2015).

Structures are written as SMILES.

The target of one experiment is PI3Kδ (Homo sapiens (Human), UniProt O00329). In words: Enzymatic activity of PI3K isoforms, TR-FRET assay (PI3Kδ). It counts as biochemical. To be noted: 2× Km ATP, geometric mean if more than one value. How it is done:
Enzymatic activity of the class I PI3K isoforms in the presence of the compounds of Table 1 and Compounds X, Y and Z was measured using a time-resolved fluorescence resonance energy transfer (TR-FRET) assay. The TR-FRET assay was used to monitor formation of the product 3,4,5-inositol triphosphate molecule (PIP3) as it competed with fluorescently labeled PIP3 for binding to the GRP-1 pleckstrin homology domain protein. An increase in […] product results in a decrease in TR-FRET signal as the labeled fluorophore is displaced from the GRP-1 protein binding site.
Class I PI3K isoforms were expressed and purified as heterodimeric recombinant proteins. All assay reagents and buffers for the TR-FRET assay were purchased from Millipore. PI3K isoforms were assayed under initial rate conditions in the presence of 25 mM Hepes (pH 7.4), and 2× Km ATP (75-500 μM), 2 μM PIP2, 5% glycerol, 5 mM MgCl2, 50 mM NaCl, 0.05% (v/v) Chaps, 1 mM dithiothreitol, 1% (v/v) DMSO at the following concentrations for each isoforms: PI3Kα, PI3Kβ, and PI3Kδ between 25 and 50 pM, and PI3Kγ at 2 nM. After an assay reaction time of 30 minutes at 25° C., reactions were terminated with a final concentration of 10 mM EDTA, 10 nM labeled-PIP3, and 35 nM Europium labeled GRP-1 detector protein before reading TR-FRET on an Envision plate reader (Ex: 340 nm; Em: 615/665 nm; […] delay and 500 μs read window).
Data were normalized based on positive ([…] wortmanin) and negative (DMSO) controls. α, β, δ, and γ IC50 values were calculated from the fit of the dose-response curves to a four-parameter equation. All IC50 values represent geometric mean values if more than one value was obtained. IC50 values were reported in units of nM.
(Time-resolved FRET reads energy transfer from a long-lived donor to a nearby acceptor.)

The next experiment has as its system basophils. The experiment is described as follows: Basophil activation in human whole blood (Flow2 CAST kit, CD63 flow cytometry). The format is cell-based. To be noted: human whole blood, basophils activated with anti-FcεRI mAb or fMLP, percent CD63 positive cells. How it is done:
Effect on basophil activation was measured in human whole blood using the Flow2 CAST® kit (Buhlmann Laboratories AG, Baselstrasse, Switzerland) following the protocol provided by the manufacturer with minor modifications. Human whole blood was collected into K2-EDTA venipuncture tubes. Whole blood samples were treated with either DMSO (0.3% final) or a serial dilution of compounds in DMSO for 60 minutes at 37° C. Basophils were then activated either with anti-FcεRI mAb or with fMLP. To activate basophils using the anti-FcεRI mAb; 50 μL of whole blood was mixed with 110 μL of stimulation buffer (B-BAT-STB) and 20 μl of anti-FcεRI (B-BAT-STCON). To activate basophils with fMLP; 50 μL of whole blood was mixed with 80 μL of stimulation buffer (B-BAT-STB) and 50 μL of fMLP (B-CCR-FMLP). Stimulation buffer was used as a negative control. 20 μL of the staining reagent (combination of anti-human CD63-FITC and anti-human CCR3-PE mAbs) was then added to each tube. The tubes were mixed gently and incubated for 25 minutes at 37° C. Subsequently, erythrocytes were lysed and fixed by the addition of 2 mL of lysing solution (B-BAT-LYR) for 10 minutes at room temperature. Cells were pelleted by centrifugation at 1200 rpm for 10 minutes at room temperature in a swing-out rotor. Supernatant was aspirated and cell pellet resuspended in 400 μL of wash buffer. Flow cytometric analysis of the basophil activation was performed on a FC500MPL flow cytometer (Beckman Coulter Inc., Fullerton, Calif.). CCR3-staining and side scatter were applied to gate at least 200 basophils that expressed a high density of CCR3. The percent CD63 positive cells within the gated basophil population were determined in different treatment groups and normalized to the vehicle control (0.3% DMSO) with anti-FcεRI mAb of fMLP stimulus as 100%. Final compound concentration was adjusted to correct for dilution effect of added reagents. The EC50 values were calculated from the analysis of the dose-response curves to a four-parameter equation.
On the technique in general: A flow cytometer gives signals particle by particle.

Chain of PI3Kδ (O00329 whole entry, the tested form may be a part, canonical isoform): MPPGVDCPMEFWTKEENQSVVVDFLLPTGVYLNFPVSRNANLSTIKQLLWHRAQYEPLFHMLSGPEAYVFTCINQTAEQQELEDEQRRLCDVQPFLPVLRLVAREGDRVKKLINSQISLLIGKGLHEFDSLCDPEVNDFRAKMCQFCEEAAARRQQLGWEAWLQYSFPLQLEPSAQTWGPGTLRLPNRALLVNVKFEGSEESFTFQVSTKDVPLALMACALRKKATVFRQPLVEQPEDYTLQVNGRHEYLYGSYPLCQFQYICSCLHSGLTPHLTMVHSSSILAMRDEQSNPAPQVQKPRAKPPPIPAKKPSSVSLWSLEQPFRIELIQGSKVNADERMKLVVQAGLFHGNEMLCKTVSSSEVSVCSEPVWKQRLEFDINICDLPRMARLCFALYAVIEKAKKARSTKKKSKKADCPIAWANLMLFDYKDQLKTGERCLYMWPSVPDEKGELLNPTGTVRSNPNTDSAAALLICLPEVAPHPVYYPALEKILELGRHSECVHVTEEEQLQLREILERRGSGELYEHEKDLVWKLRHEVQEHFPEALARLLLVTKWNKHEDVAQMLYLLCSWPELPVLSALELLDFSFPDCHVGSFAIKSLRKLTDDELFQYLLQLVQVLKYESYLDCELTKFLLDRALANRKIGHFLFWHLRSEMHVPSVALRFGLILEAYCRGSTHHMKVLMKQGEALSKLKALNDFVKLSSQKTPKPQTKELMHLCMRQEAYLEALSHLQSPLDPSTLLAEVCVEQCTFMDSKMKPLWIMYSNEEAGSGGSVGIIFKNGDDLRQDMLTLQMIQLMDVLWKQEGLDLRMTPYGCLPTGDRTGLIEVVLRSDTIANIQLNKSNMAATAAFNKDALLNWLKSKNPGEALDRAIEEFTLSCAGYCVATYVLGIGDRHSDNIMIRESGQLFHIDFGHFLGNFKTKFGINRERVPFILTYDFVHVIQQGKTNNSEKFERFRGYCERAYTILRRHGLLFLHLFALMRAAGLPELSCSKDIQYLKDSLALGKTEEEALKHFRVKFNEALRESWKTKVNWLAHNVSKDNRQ
Chain of PI3Kδ (P27986 whole entry partner, the tested form may be a part, canonical isoform): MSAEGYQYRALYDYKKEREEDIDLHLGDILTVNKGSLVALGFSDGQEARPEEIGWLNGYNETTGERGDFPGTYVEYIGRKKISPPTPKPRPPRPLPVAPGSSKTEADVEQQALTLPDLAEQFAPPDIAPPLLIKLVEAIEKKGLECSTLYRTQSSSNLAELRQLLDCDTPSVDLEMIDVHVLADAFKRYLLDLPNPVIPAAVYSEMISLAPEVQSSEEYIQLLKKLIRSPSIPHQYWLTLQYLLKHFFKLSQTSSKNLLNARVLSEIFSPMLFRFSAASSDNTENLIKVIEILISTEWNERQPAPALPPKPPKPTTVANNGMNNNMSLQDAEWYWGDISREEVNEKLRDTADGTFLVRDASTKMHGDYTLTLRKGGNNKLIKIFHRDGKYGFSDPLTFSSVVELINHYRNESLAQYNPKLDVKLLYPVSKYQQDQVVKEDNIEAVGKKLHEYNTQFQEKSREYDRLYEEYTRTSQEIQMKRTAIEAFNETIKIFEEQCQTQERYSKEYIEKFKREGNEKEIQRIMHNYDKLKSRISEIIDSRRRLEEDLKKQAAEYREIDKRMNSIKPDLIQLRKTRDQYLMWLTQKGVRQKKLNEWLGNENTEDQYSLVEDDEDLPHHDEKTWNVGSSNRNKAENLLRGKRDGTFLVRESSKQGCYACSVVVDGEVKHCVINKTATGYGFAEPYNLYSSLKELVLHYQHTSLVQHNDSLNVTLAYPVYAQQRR

As for `Cc1ncccc1-n1c([C@H](C)Nc2nc(N)nc(N)c2C#N)nc2cccc(Cl)c2c1=O` (atropisomer, axis not shown) [Compound 38, (S)-2,4-diamino-6-(1-(5-chloro-3-(2-methylpyridin-3-yl)-4-oxo-3,4-dihydroquinazolin-2-yl)ethylamino)pyrimidine-5-carbonitrile], the IC50 (usually the concentration at which inhibition is half-maximal) against PI3Kδ was determined as 13 nM. In addition, the EC50 (commonly the midpoint of the concentration-response curve) is 1 to 10 nM in the experiment with basophils (Homo sapiens, class symbol) and 9 nM with basophils (geometric mean).
Turning to `Cc1ccncc1-n1c([C@H](C)Nc2nc(N)nc(N)c2C#N)nc2cccc(Cl)c2c1=O` (atropisomer, axis not shown) [Compound 40, (S)-2,4-diamino-6-(1-(5-chloro-3-(4-methylpyridin-3-yl)-4-oxo-3,4-dihydroquinazolin-2-yl)ethylamino)pyrimidine-5-carbonitrile], the midpoint of inhibition against PI3Kδ, the IC50, lay at 9 nM. The EC50 in the experiment on basophils (Homo sapiens, class symbol) is 1 to 10 nM; with basophils (Homo sapiens, geometric mean), 7 nM.
In turn, `Cc1ccncc1-n1c([C@H](C)Nc2nc(N)nc(N)c2C#N)nc2ccc(F)c(Cl)c2c1=O` (atropisomer, axis not shown) [Compound 42, (S)-2,4-diamino-6-(1-(5-chloro-6-fluoro-3-(4-methylpyridin-3-yl)-4-oxo-3,4-dihydroquinazolin-2-yl)ethylamino)pyrimidine-5-carbonitrile] gave an IC50 against PI3Kδ of 27 nM. Further, the EC50 with basophils (Homo sapiens, class symbol) was 1 to 10 nM; with basophils (geometric mean), 8 nM.
On PI3Kδ, `C[C@H](Nc1nc(N)nc(N)c1Cl)c1nc2cccc(F)c2c(=O)n1-c1cccnc1` [Compound 52, (S)-2-(1-((2,6-Diamino-5-chloropyrimidin-4-yl)amino)ethyl)-5-fluoro-3-(pyridin-3-yl)quinazolin-4(3H)-one] showed an IC50 of 63 nM.
Still for that read-out and setting: the value for `C[C@H](Nc1nc(N)nc(N)c1Cl)c1nc2cccc(Cl)c2c(=O)n1-c1cccnc1` [Compound 53, (S)-5-Chloro-2-(1-((2,6-diamino-5-chloropyrimidin-4-yl)amino)ethyl)-3-(pyridin-3-yl)quinazolin-4(3H)-on] was 4 nM; that for `C[C@H](Nc1nc(N)nc(N)c1C#N)c1nc2c(C#N)cc(F)cc2c(=O)n1-c1cccnc1` [Compound 54, (S)-2-(1-((2,6-Diamino-5-cyanopyrimidin-4-yl)amino)ethyl)-6-fluoro-4-oxo-3-(pyridin-3-yl)-3,4-dihydroquinazoline-8-carbonitrile] was 10 nM.
On the same count and under the same terms, for `CC[C@H](Nc1nc(N)nc(N)c1C#N)c1nc2c(C#N)cc(F)cc2c(=O)n1-c1cncc(F)c1` [Compound 55, (S)-2-(1-((2,6-Diamino-5-cyanopyrimidin-4-yl)amino)propyl)-6-fluoro-3-(5-fluoropyridin-3-yl)-4-oxo-3,4-dihydroquinazoline-8-carbonitrile] the value was 60 nM; for `N#Cc1c(N)nc(N)nc1N[C@H](c1nc2c(C#N)cc(F)cc2c(=O)n1-c1cncc(F)c1)C1CC1` [Compound 56, (S)-2-(Cyclopropyl((2,6-diamino-5-cyanopyrimidin-4-yl)amino)methyl)-6-fluoro-3-(5-fluoropyridin-3-yl)-4-oxo-3,4-dihydroquinazoline-8-carbonitrile], 30 nM.
For `CC(C)C[C@H](Nc1nc(N)nc(N)c1C#N)c1nc2cccc(Cl)c2c(=O)n1-c1cncc(F)c1` [Compound 57, (S)-2,4-Diamino-6-((1-(5-chloro-3-(5-fluoropyridin-3-yl)-4-oxo-3,4-dihydroquinazolin-2-yl)-3-methylbutyl)amino)pyrimidine-5-carbonitrile], at PI3Kδ, inhibition was half-maximal at 14 nM (IC50).
Regarding `CC(C)C[C@H](Nc1nc(N)nc(N)c1C#N)c1nc2cccc(Cl)c2c(=O)n1-c1cccnc1` [Compound 58, (S)-2,4-Diamino-6-((1-(5-chloro-4-oxo-3-(pyridin-3-yl)-3,4-dihydroquinazolin-2-yl)-3-methylbutyl)amino)pyrimidine-5-carbonitrile], at PI3Kδ, the IC50 came to 14 nM.
As for `N#Cc1ccc(F)c2nc([C@@H](Nc3nc(N)nc(N)c3Cl)C3CC3)n(-c3cccnc3)c(=O)c12` [Compound 59, (S)-2-(cyclopropyl((2,6-diamino-5-chloropyrimidin-4-yl)amino)methyl)-8-fluoro-4-oxo-3-(pyridin-3-yl)-3,4-dihydroquinazoline-5-carbonitrile], at PI3Kδ, it took 380 nM to reach half-maximal inhibition (IC50).
Regarding `C[C@H](Nc1nc(N)nc(N)c1C#N)c1nc2c(F)ccc(Br)c2c(=O)n1-c1cncc(F)c1` [Compound 60, (S)-2,4-diamino-6-((1-(5-bromo-8-fluoro-3-(5-fluoropyridin-3-yl)-4-oxo-3,4-dihydroquinazolin-2-yl)ethyl)amino)pyrimidine-5-carbonitrile], the midpoint of inhibition against PI3Kδ, the IC50, lay at 1 nM.
Same read-out and setting: the value for `CC[C@H](Nc1nc(N)nc(N)c1C#N)c1nc2c(F)ccc(Br)c2c(=O)n1-c1cccnc1` [Compound 61, (S)-2,4-diamino-6-((1-(5-bromo-8-fluoro-4-oxo-3-(pyridin-3-yl)-3,4-dihydroquinazolin-2-yl)propyl)amino)pyrimidine-5-carbonitrile] was 1 nM.
The same measure, in the same setting: the value for `C[C@H](Nc1nc(N)nc(N)c1C#N)c1nc2c(F)ccc(C#N)c2c(=O)n1-c1cncc(F)c1` [Compound 62, (S)-2-(1-((2,6-diamino-5-cyanopyrimidin-4-yl)amino)ethyl)-8-fluoro-3-(5-fluoropyridin-3-yl)-4-oxo-3,4-dihydroquinazoline-5-carbonitrile] was 42 nM.
On the same count and under the same terms, the value for `C[C@H](Nc1nc(N)nc(N)c1Cl)c1nc2cccc(C#N)c2c(=O)n1-c1cccnc1` [Compound 63, (S)-2-(1-((2,6-diamino-5-chloropyrimidin-4-yl)amino)ethyl)-4-oxo-3-(pyridin-3-yl)-3,4-dihydroquinazoline-5-carbonitrile] was 95 nM.
Turning to `C[C@H](Nc1nc(N)nc(N)c1C#N)c1nc2c(F)ccc(Br)c2c(=O)n1-c1cccnc1` [Compound 64, (S)-2,4-diamino-6-((1-(5-bromo-8-fluoro-4-oxo-3-(pyridin-3-yl)-3,4-dihydroquinazolin-2-yl)ethyl)amino)pyrimidine-5-carbonitrile], it took 0.6 nM to reach half-maximal inhibition at PI3Kδ (IC50).
On the same count and under the same terms, the value for `C[C@@H](Nc1nc(N)nc(N)c1C#N)c1nc2c(F)ccc(Cl)c2c(=O)n1-c1cccnc1` [Compound 110, (R)-2,4-Diamino-6-((1-(5-chloro-8-fluoro-4-oxo-3-(pyridin-3-yl)-3,4-dihydroquinazolin-2-yl)ethyl)amino)pyrimidine-5-carbonitrile] was 61 nM.
`CC[C@@H](Nc1nc(N)nc(N)c1C#N)c1nc2c(F)ccc(Cl)c2c(=O)n1-c1cccnc1` [Compound 111, (R)-2,4-Diamino-6-((1-(5-chloro-8-fluoro-4-oxo-3-(pyridin-3-yl)-3,4-dihydroquinazolin-2-yl)propyl)amino)pyrimidine-5-carbonitrile] displayed an IC50 on PI3Kδ of 9 nM.
Compound `N#Cc1c(N)nc(N)nc1N[C@@H](c1nc2c(F)ccc(Cl)c2c(=O)n1-c1cccnc1)C1CC1` [Compound 112, (R)-2,4-Diamino-6-(((5-chloro-8-fluoro-4-oxo-3-(pyridin-3-yl)-3,4-dihydroquinazolin-2-yl)(cyclopropyl)methyl)amino)pyrimidine-5-carbonitrile] returned an IC50 at PI3Kδ of 7 nM.
The same measure, in the same setting: the value for `C[C@@H](Nc1nc(N)nc(N)c1C#N)c1nc2c(F)ccc(Cl)c2c(=O)n1-c1cncc(F)c1` [Compound 113, (R)-2,4-Diamino-6-((1-(5-chloro-8-fluoro-3-(5-fluoropyridin-3-yl)-4-oxo-3,4-dihydroquinazolin-2-yl)ethyl)amino)pyrimidine-5-carbonitrile] was 620 nM.
